Source: US20230203004A1, “RSV INHIBITING 3-SUBSTITUTED QUINOLINE AND CINNOLINE DERIVATIVES” (Janssen Sciences Ireland Unlimited Company, priority 2020, published 2023)
Read-outs that look alike come from different tables or passages of the source.

Tests used:
rgRSV224 virus = assay: Antiviral activity: rgRSV224 (GFP) replication in HeLa cells; type: cell-based, respiratory syncytial virus (RSV)
Description: (§1) Black 384-well clear-bottom microtiter plates (Corning, Amsterdam, The Netherlands) were filled via acoustic drop ejection using the echo liquid handler (Labcyte, Sunnyvale, California). 200 nL of compound stock solutions (100% DMSO) were transferred to the assay plates. 9 serial 4-fold dilutions of compound were made, creating per quadrant the same compound concentration. The assay was initiated by adding 10 µL of culture medium to each well (RPMI medium without phenol red, 10% FBS-heat inactivated, 0.04% gentamycin (50 mg/mL). All addition steps are done by using a multidrop dispenser (Thermo Scientific, Erembodegem, Belgium). Next, rgRSV224 virus (MOI = 1) diluted in culture medium was added to the plates. rgRSV224 virus is an engineered virus that includes an additional GFP gene (Hallak LK, Spillmann D, Collins PL, Peeples ME. Glycosaminoglycan sulfation requirements for respiratory syncytial virus infection; Journal of virology (2000), 74(22), 10508-13) and was in-licensed from the NIH (Bethesda, MD, USA). Finally, 20 µL of a HeLa cell suspension (3,000 cells/well) were plated. Medium, virus- and mock-infected controls were included in each test. The wells contain […] DMSO per volume. Cells were incubated at 37° C. in a 5% CO2 atmosphere. Three days post-virus exposure, viral replication was quantified by measuring GFP expression in the cells by an in house developed MSM laser microscope (Tibotec, Beerse, Belgium). The EC50 was defined as the 50% inhibitory concentration for GFP expression. In parallel, compounds were incubated for three days in a set of white 384-well microtiter plates (Corning) and the cytotoxicity of compounds in HeLa cells was determined by measuring the ATP content of the cells using the ATPlite kit (Perkin Elmer, Zaventem, Belgium) according to the manufacturer’s instructions. The CC50 was defined as the 50% concentration for cytotoxicity.

[1] = Cytotoxicity in HeLa cells (ATP content, ATPlite kit); type: cell-based; settings: human
Description: as §1

[2] = human respiratory syncytial virus, HeLa, 72 h, read-out: RSV HELA EC50, HeLa cells, rgRSV224 MOI = 1, GFP expression three days post-virus exposure, averaged data of several repeat experiments
[3] = human respiratory syncytial virus, HeLa, comparison table 5.3, antiviral RSV assay of Example 5.1

Structure (SMILES) | EC50 (rgRSV224 virus; [2]) | CC50 at 3 days ([1]; TOX HELA CC50) | EC50 (rgRSV224 virus; [3]) | EC50 (rgRSV224 virus; read-out: RSV HELA EC50, HeLa cells, rgRSV224 MOI = 1, GFP expression three days post-virus exposure, averaged data of several repeat experiments) | CC50 at 3 days ([1]; CC50)
COc1cc(C(=O)NC[C@](O)(c2cc(C(C)(C)O)c(Cl)c(-c3ccc(F)cc3)n2)C2CC2)cc2cc(C(F)F)cnc12 [compound 226, (-)-N-{2-[5-Chloro-6-(4-Fluorophenyl)-4-(2-Hydroxypropan-2-yl)Pyridin-2-yl]-2-Cyclopropyl-2-Hydroxyethyl}-3-(Difluoromethyl)-8-Methoxyquinoline-6-Carboxamide] | 0.0024 µM | 14 µM |  |  | 
COc1cc(C(=O)NC[C@](O)(c2cc(C(C)(C)O)c(F)c(-c3ccc(F)cc3)n2)C2CC2)cc2cc(C(F)F)cnc12 [compound 227, N-{(-)Cyclopropyl[5-Fluoro-6-(4-Fluorophenyl)-4-(2-Hydroxypropanyl)Pyridinyl]Hydroxyethyl}-3-(Difluoromethyl)-8-Methoxyquinoline-6-Carboxamide] | 0.0011 µM | 15 µM |  |  | 
COc1cc(C(=O)NC[C@](O)(c2nc(-c3ccc(F)cc3)c(F)c(C(C)(C)O)c2F)C(F)(F)F)cc2cc(C3CC3)cnc12 [compound 228, (-)Cyclopropyl-N-{2-[3,5-Difluoro-6-(4-Fluorophenyl)-4-(2-Hydroxypropan-2-yl)Pyridin-2-yl]-3,3,3-Trifluoro-2-Hydroxypropyl}-8-Methoxyquinoline-6-Carboxamide] | 0.013 µM | 10 µM |  |  | 
COc1cc(C(=O)NC[C@](C)(O)c2cc(C(C)(C)O)c(Cl)c(-c3ccc(F)cc3)n2)cc2cc(C)nnc12 [compound 229, (-)-N-{2-[5-Chloro-6-(4-Fluorophenyl)-4-(2-Hydroxypropan-2-yl)Pyridin-2-yl]-2-Hydroxypropyl}-8-Methoxy-3-Methylcinnoline-6-Carboxamide] | 0.00081 µM | 44 µM |  |  | 
COc1cc(C(=O)NC[C@@](C)(O)c2cc(C(C)(C)O)c(Cl)c(-c3ccc(F)cc3)n2)cc2cc(C)nnc12 [compound 230] | 0.12 µM | 57 µM |  |  | 
COc1cc(C(=O)NC[C@](O)(c2cc(C(C)(C)O)c(Cl)c(-c3ccc(F)cc3)n2)C(F)(F)F)cc2cc(C)nnc12 [compound 232, (-)-N-{2-[5-Chloro-6-(4-Fluorophenyl)-4-(2-Hydroxypropan-2-yl)Pyridin-2-yl]-3,3,3-Trifluoro-2-Hydroxypropyl}-8-Methoxy-3-Methylcinnoline-6-Carboxamide] | 0.0016 µM | 24 µM |  |  | 
COc1cc(C(=O)NC[C@@](O)(c2cc(C(C)(C)NS(C)(=O)=O)c(Cl)c(-c3ccc(F)cc3)n2)C(F)(F)F)cc2cc(C)nnc12 [compound 233, (+)-N-{2-[5-Chloro-6-(4-Fluorophenyl)-4-{2-[(Methanesulfonyl)Amino]Propan-2-yl}Pyridin-2-yl]-3,3,3-Trifluoro-2-Hydroxypropyl}-8-Methoxy-3-Methylcinnoline-6-Carboxamide] | 0.4 µM | 43 µM |  |  | 
COc1cc(C(=O)NC[C@](O)(c2cc(C(C)(C)O)c(F)c(-c3ccc(F)cc3)n2)C(F)(F)F)cc2cc(C)nnc12 [compound 234] |  | 23 µM | 0.0006 µM | 0.00082 µM | 23 µM
COc1cc(C(=O)NC[C@](O)(c2cc(C(C)(C)NS(C)(=O)=O)c(F)c(-c3ccc(F)cc3)n2)C(F)(F)F)cc2cc(C)nnc12 [compound 237, (-)Methoxy-3-Methyl-N-{3,3,3-Trifluoro-2-[5-Fluoro-6-(4-Fluorophenyl)-4-{2-[(MethaneSulfonyl)Amino]propan-2-yl}Pyridin-2-yl]-2-Hydroxypropyl}Cinnoline-6-Carboxamide] | 0.0051 µM | 51 µM |  |  | 
COc1cc(C(=O)NC[C@](O)(c2cc(C(C)(C)O)c(F)c(-c3ccc(F)c(C)c3)n2)C(F)(F)F)cc2cc(C)nnc12 [compound 238, (+)Methoxy-3-Methyl-N-{3,3,3-Trifluoro-2-[5-Fluoro-6-(4-Fluoro-3-Methylphenyl)-4-(2-Hydroxypropan-2-yl)Pyridin-2-yl]-2-Hydroxypropyl}Cinnoline-6-Carboxamide] | 0.0029 µM | 23 µM |  |  | 
COc1cc(C(=O)NC[C@](O)(c2cc(C(C)(C)O)c(F)c(-c3ccc(F)c(F)c3)n2)C(F)(F)F)cc2cc(C)nnc12 [compound 239, (-)-N-{2-[6-(3,4-Difluorophenyl)-5-Fluoro-4-(2-Hydroxypropan-2-yl)Pyridin-2-yl]-3,3,3-Trifluoro-2-Hydroxypropyl}-8-Methoxy-3-Methylcinnoline-6-Carboxamide] | 0.0005 µM | 19 µM |  |  | 
COc1cc(C(=O)NC[C@](O)(c2nc(-c3ccc(F)cc3)c(F)c(C(C)(C)O)c2F)C(F)(F)F)cc2cc(C)nnc12 [compound 240, (-)-N-{2-[3,5-Difluoro-6-(4-Fluorophenyl)-4-(2-Hydroxypropan-2-yl)Pyridin-2-yl]-3,3,3-Trifluoro-2-Hydroxypropyl}-8-Methoxy-3-Methylcinnoline-6-Carboxamide] | 0.0012 µM | 46 µM |  |  | 
COc1cc(C(=O)NC[C@](O)(c2nc(-c3ccc(F)cc3)c(F)c(C(C)(C)NC(C)=O)c2F)C(F)(F)F)cc2cc(C)nnc12 [compound 241, (-)-N-{2-[4-(2-Acetamidopropan-2-yl)-3,5-Difluoro-6-(4-Fluorophenyl)Pyridin-2-yl]-3,3,3-Trifluoro-2-Hydroxypropyl}-8-Methoxy-3-Methylcinnoline-6-Carboxamide] | 0.0015 µM | 50 µM |  |  | 
COc1cc(C(=O)NC[C@@](O)(c2nc(-c3ccc(F)cc3)c(F)c(C(C)(C)NC(C)=O)c2F)C(F)(F)F)cc2cc(C)nnc12 [compound 242, (+)-N-{2-[4-(2-Acetamidopropan-2-yl)-3,5-Difluoro-6-(4-Fluorophenyl)Pyridin-2-yl]-3,3,3-Trifluoro-2-Hydroxypropyl}-8-Methoxy-3-Methylcinnoline-6-Carboxamide] | 0.17 µM | 48 µM |  |  | 
COc1cc(C(=O)NC[C@](O)(c2nc(-c3ccc(F)cc3)c(F)c(C(C)(C)NS(C)(=O)=O)c2F)C(F)(F)F)cc2cc(C)nnc12 [compound 243, (-)-N-{2-[3,5-Difluoro-6-(4-Fluorophenyl)-4-{2-[(Methanesulfoyl)Amino]Propan-2-yl}Pyridin-2-yl]-3,3,3-Trifluoro-2-Hydroxypropyl}-8-Methoxy-3-Methylcinnoline-6-Carboxamide] | 0.003 µM | 45 µM |  |  | 
COc1cc(C(=O)NC[C@@](O)(c2nc(-c3ccc(F)cc3)c(F)c(C(C)(C)NS(C)(=O)=O)c2F)C(F)(F)F)cc2cc(C)nnc12 [compound 244, (+)-N-{2-[3,5-Difluoro-6-(4-Fluorophenyl)-4-{2-[(Methanesulfonyl)Amino]Propan-2-yl}Pyridin-2-yl]-3,3,3-Trifluoro-2-Hydroxypropyl}-8-Methoxy-3-Methylcinnoline-6-Carboxamide] | 0.058 µM | 43 µM |  |  | 
COc1cc(C(=O)NC[C@](O)(c2nc(-c3ccc(F)cc3)c(Cl)c(C(C)(C)O)c2F)C(F)(F)F)cc2cc(C)nnc12 [compound 247, (-)-N-{2-[5-Chloro-3-Fluoro-6-(4-Fluorophenyl)-4-(2-Hydroxypropan-2-yl)Pyridin-2-yl]-3,3,3-Trifluoro-2-Hydroxypropyl}-8-Methoxy-3-Methylcinnoline-6-Carboxamide] | 0.0019 µM | 51 µM |  |  | 
COc1cc(C(=O)NC[C@](O)(c2cc(C(C)(C)O)c(Cl)c(-c3ccc(F)cc3)n2)C2CC2)cc2cc(C)nnc12 [compound 251, N-{(-)[5-Chloro-6-(4-Fluorophenyl)-4-(2-Hydroxypropanyl)Pyridinyl]CyclopropylHydroxyethyl}-8-Methoxy-3-Methylcinnoline-6-Carboxamide] | 0.00053 µM | 28 µM |  |  | 
COc1cc(C(=O)NC[C@](O)(c2cc(C(C)(C)O)c(F)c(-c3ccc(F)cc3)n2)C2CC2)cc2cc(C)nnc12 [compound 252, (-)-N-{2-Cyclopropyl-2-[5-Fluoro-6-(4-Fluorophenyl)-4-(2-Hydroxypropan-2-yl)Pyridin-2-yl]-2-Hydroxyethyl}-8-Methoxy-3-Methylcinnoline-6-Carboxamide] | 0.0003 µM | 43 µM | 0.0003 µM |  | 38 µM
Cc1cc2cc(C(=O)NC[C@](O)(c3cc(C(C)(C)O)c(Cl)c(-c4ccc(F)cc4)n3)C3CC3)cc(OC3CC3)c2nn1 [compound 264, (-)-N-{2-[5-Chloro-6-(4-Fluorophenyl)-4-(2-Hydroxypropan-2-yl)Pyridin-2-yl]-2-Cyclopropyl-2-Hydroxyethyl}-8-(Cyclopropyloxy)-3-Methylcinnoline-6-Carboxamide] | 0.00087 µM | 32 µM |  |  | 
